Data as given in US10688200B2, “Urea-based prostate specific membrane antigen (PSMA) inhibitors for imaging and therapy” (Five Eleven Pharma Inc., priority 2015, dated 2020).

Legend:
[1] = tested on: PSMA-expressing LNCaP cells; assay: Cell binding and internalization; format: cell-based, human; conditions: 37° C.
Protocol: The cellular uptake and internalization kinetics of the [^68Ga]1a, [^68Ga]5a and [^68Ga]5b were determined using PSMA-expressing LNCaP cells. Furthermore, to be able to discriminate between total cellular activity (sum of membrane-associated and internalized activity) and internalized activity, all incubations were followed by a washing step with mild acid at 4° C. to remove specifically cell-surface bound radioligand by displacement.
LNCaP cells (in 6-well plates in triplicates) were incubated in RPMI-1640 medium with [^68Ga]1a, [^68Ga]5a or [^68Ga]5b for 0-2 h at 37° C. At the indicated time, the medium was removed and the cells were washed twice and then incubated with a mild acid buffer (50 mM glycine, 150 mM NaCl, pH 3.0) at 4° C. for 5 min. The supernatant (containing cell surface-bound radioactivity) was pooled and the cell pellet (containing internalized radioactivity) was collected with filter paper and then radioactivity in supernatant and cell pellet was counted on a gamma counter.
LNCaP cells were incubated with [^68Ga]1a, [^68Ga]5a and [^68Ga]5b for up to 2 h at 37° C. to determine whether the compound is internalized by endocytosis. The cells were then washed with a mild acid buffer to remove extracellularly bound compound.
Non specific binding (NSB) was evaluated by blocking with 20 μM PMPA. Specificity of cell uptake (SB) was calculated by subtracting the respective signals resulting from PMPA blocking. Values are expressed as % of applied radioactivity bound to 10^6 cells.

[2] = Biodistribution of radiotracers in normal mice; format: in vivo, mouse; conditions: normal male mice
Procedure, shortened: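 Male CD-1 mice received 35 μCi [^68Ga] radiotracer (0.2 nmole ligand) by tail vein. Four mice per time point sacrificed at 2, 30, 60 and 120 min p.i.; organs and blood weighed and gamma counted. %ID/g calculated against a standard dilution of the dose, decay-corrected.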

[3] = tested on: LNCaP (left shoulder) and PC-3 (right shoulder) tumor bearing nude mouse; assay: Small animal PET imaging with [68Ga]1a and [68Ga]4a; format: in vivo; conditions: 60 to 75 min after i.v. injection
Protocol: Male athymic mice (CD-1 nude, 5-6 weeks old) were obtained from Charles River, and were allowed to acclimatize at the vivarium for 1 week prior to implanting tumors. Mice were provided with food and water ad libitum. LNCaP tumors were induced on the left shoulder by sub-cutaneous (s.c.) injection of 5.0×10^6 cells in a 200 μL cell suspension of a 1:1 v/v mixture of media with reconstituted basement membrane (BD Matrigel™, Collaborative Biomedical Products Inc., Bedford, Mass.). Similarly, PC-3 tumors were induced on the right shoulder by s.c. injection of 2.0×10^6 cells. Palpable LNCaP tumors developed after a period of 4-5 weeks.
Dynamic small animal PET (APET) imaging studies of LNCaP (left shoulder) and PC-3 (right shoulder) tumor bearing nude mouse were performed with [^68Ga]1a and [^68Ga]4a. PET imaging studies were performed on a Phillips Mosaic small animal PET scanner, which has an imaging field of view of 11.5 cm. Under isoflurane anesthesia (1-2%, 1 L/min oxygen), the tumor-bearing nude mouse was injected with 0.5 mCi activity by an intravenous injection into the lateral tail vein. Data acquisition began at 30 min after the injection. Dynamic scans were conducted over a period of 1 h (5 min/frame; image voxel size 0.5 mm^3). Mouse was visually monitored for breathing, and a heating pad was used to maintain body temperature throughout the entire procedure. Images were reconstructed and a region of interest (ROI) analysis was performed using AMIDE software (http://amide.sourceforge.net/).
Representative animal PET images of LNCaP xenograft mice between 60 to 75 min after i.v. injection of [^68Ga]1a, and [^68Ga]4a are shown in FIGS. 3A-3F. […] FIGS. 3A-3F show sagittal, transaxial and coronal sections of APET images of nude mouse with LNCaP tumor at left shoulder and PC-3 tumor at right shoulder between 60 to 75 min post i.v. injection of [^68Ga]1a (FIGS. 3A-3C) and [^68Ga]4a (FIG. 3D-3F).

[4] = tested on: LNCaP tumor bearing nude mice; assay: Biodistribution of [68Ga]labeled ligand in PSMA positive tumor bearing nude mice; format: in vivo, mouse; conditions: 1 h post-injection, i.v., n = 3
Protocol: In a dish contained 5×10^6 cells of LNCaP in 50% Matrigel (Becton Dickinson, Heidelberg, Germany) were subcutaneously inoculated into the left shoulder of male 5- to 6-week-old CD-1 nu/nu mice (Charles River Laboratories). The tumors were allowed to grow for 8 weeks until approximately 0.5 cm^3 in size.
The ^68Ga-radiolabeled compounds were injected via tail vein (25 μCi per mouse; 0.1-0.2 nmol). At 1 h after injection, the animals were sacrificed. Organs of interest were dissected and weighed. The radioactivity was measured with a gamma counter and calculated as % ID/g.

- Biodistribution: Blood ([2]; 2 min): 7.75 ± 1.60 % dose/g
- Biodistribution: Bone ([2]; 2 min): 1.77 ± 0.16 % dose/g
- Biodistribution: Brain ([2]; 2 min): 0.25 ± 0.02 % dose/g
- Biodistribution: Heart ([2]; 2 min): 3.32 ± 0.51 % dose/g
- Biodistribution: Kidney ([2]; 2 min): 40.5 ± 7.81 % dose/g
- Biodistribution: Liver ([2]; 2 min): 11.0 ± 0.99 % dose/g
- Biodistribution: Lung ([2]; 2 min): 5.29 ± 0.82 % dose/g
- Biodistribution: Muscle ([2]; 2 min): 1.68 ± 0.20 % dose/g
- Biodistribution: Pancreas ([2]; 2 min): 1.91 ± 0.17 % dose/g
- Biodistribution: Skin ([2]; 2 min): 2.42 ± 0.38 % dose/g
- Biodistribution: Spleen ([2]; 2 min): 7.46 ± 0.84 % dose/g
- Biodistribution: Blood ([2]; 30 min): 0.54 ± 0.08 % dose/g
- Biodistribution: Bone ([2]; 30 min): 0.24 ± 0.08 % dose/g
- Biodistribution: Brain ([2]; 30 min): 0.03 ± 0.00 % dose/g
- Biodistribution: Heart ([2]; 30 min): 0.27 ± 0.09 % dose/g
- Biodistribution: Kidney ([2]; 30 min): 108 ± 23.7 % dose/g
- Biodistribution: Liver ([2]; 30 min): 0.35 ± 0.03 % dose/g
- Biodistribution: Lung ([2]; 30 min): 1.14 ± 0.17 % dose/g
- Biodistribution: Muscle ([2]; 30 min): 0.32 ± 0.01 % dose/g
- Biodistribution: Pancreas ([2]; 30 min): 0.76 ± 0.11 % dose/g
- Biodistribution: Skin ([2]; 30 min): 0.95 ± 0.20 % dose/g
- Biodistribution: Spleen ([2]; 30 min): 2.95 ± 0.36 % dose/g
- Biodistribution: Blood ([2]; 60 min): 0.33 ± 0.07 % dose/g
- Biodistribution: Bone ([2]; 60 min): 0.23 ± 0.02 % dose/g
- Biodistribution: Brain ([2]; 60 min): 0.02 ± 0.00 % dose/g
- Biodistribution: Heart ([2]; 60 min): 0.34 ± 0.07 % dose/g
- Biodistribution: Kidney ([2]; 60 min): 91.1 ± 11.6 % dose/g
- Biodistribution: Liver ([2]; 60 min): 6.09 ± 0.86 % dose/g
- Biodistribution: Lung ([2]; 60 min): 0.93 ± 0.14 % dose/g
- Biodistribution: Muscle ([2]; 60 min): 0.19 ± 0.02 % dose/g
- Biodistribution: Pancreas ([2]; 60 min): 0.59 ± 0.10 % dose/g
- Biodistribution: Skin ([2]; 60 min): 0.44 ± 0.05 % dose/g
- Biodistribution: Spleen ([2]; 60 min): 4.39 ± 0.42 % dose/g
- Biodistribution: Blood ([2]; 120 min): 0.12 ± 0.03 % dose/g
- Biodistribution: Bone ([2]; 120 min): 0.21 ± 0.05 % dose/g
- Biodistribution: Brain ([2]; 120 min): 0.01 ± 0.00 % dose/g
- Biodistribution: Heart ([2]; 120 min): 0.23 ± 0.19 % dose/g
- Biodistribution: Kidney ([2]; 120 min): 83.9 ± 13.6 % dose/g
- Biodistribution: Liver ([2]; 120 min): 2.56 ± 0.80 % dose/g
- Biodistribution: Lung ([2]; 120 min): 0.77 ± 0.17 % dose/g
- Biodistribution: Muscle ([2]; 120 min): 0.12 ± 0.03 % dose/g
- Biodistribution: Pancreas ([2]; 120 min): 0.64 ± 0.23 % dose/g
- Biodistribution: Skin ([2]; 120 min): 0.31 ± 0.12 % dose/g
- Biodistribution: Spleen ([2]; 120 min): 5.07 ± 2.68 % dose/g
- LNCaP tumor visualization in PET images, in words [3]: clearly visualized
- PC-3 (PSMA negative) tumor uptake in PET images, in words [3]: did not show any uptakes
- Organ distribution: Blood [4]: 0.37 ± 0.07 % dose/g
- Organ distribution: Bone [4]: 0.21 ± 0.05 % dose/g
- Organ distribution: Brain [4]: 0.04 ± 0.01 % dose/g
- Organ distribution: Heart [4]: 0.59 ± 0.14 % dose/g
- Organ distribution: Kidney [4]: 176 ± 5.66 % dose/g
- Organ distribution: LNCaP tumor [4]: 10.07 ± 3.32 % dose/g
- Organ distribution: Liver [4]: 0.62 ± 0.24 % dose/g
- Organ distribution: Lung [4]: 2.44 ± 1.03 % dose/g
- Organ distribution: Muscle [4]: 0.58 ± 0.24 % dose/g
- Organ distribution: Pancreas [4]: 1.38 ± 0.63 % dose/g
- Organ distribution: Skin [4]: 1.14 ± 0.58 % dose/g
- Organ distribution: Spleen [4]: 18.48 ± 3.02 % dose/g
Compound: O=C(O)CCc1ccc2c(c1)C[N+]13CC[N+]45CC(=O)[O][68Ga-3]14([O]C(=O)C3)([O]2)[O]c1ccc(CCC(=O)NCCCCCC(=O)NCCCC[C@H](NC(=O)N[C@@H](CCC(=O)O)C(=O)O)C(=O)O)cc1C5 (stereo partly shown) [[^68Ga]1a, reference compound]
- Cell surface binding activity ([1]; 5 min): 3.21 ± 0.74 % ID/10^6 cells
- Internalized activity ([1]; 5 min): 0.49 ± 0.21 % ID/10^6 cells
- Cell surface binding activity ([1]; 15 min): 3.61 ± 0.47 % ID/10^6 cells
- Internalized activity ([1]; 15 min): 2.51 ± 0.19 % ID/10^6 cells
- Cell surface binding activity ([1]; 30 min): 2.95 ± 0.36 % ID/10^6 cells
- Internalized activity ([1]; 30 min): 4.30 ± 0.72 % ID/10^6 cells
- Cell surface binding activity ([1]; 60 min): 3.22 ± 0.81 % ID/10^6 cells
- Internalized activity ([1]; 60 min): 7.43 ± 1.27 % ID/10^6 cells
- Cell surface binding activity ([1]; 90 min): 3.41 ± 0.17 % ID/10^6 cells
- Internalized activity ([1]; 90 min): 8.34 ± 0.16 % ID/10^6 cells
- Cell surface binding activity ([1]; 120 min): 3.35 ± 0.04 % ID/10^6 cells
- Internalized activity ([1]; 120 min): 8.82 ± 0.45 % ID/10^6 cells
